Data as given in patent US8796256B2 (Janssen Pharmaceutica NV, priority 2010, dated 2014).

Each compound was assayed against T1, ERR1 (also known as ERR-α or ERR-1) (Homo sapiens, UniProt P11474) (assay: TR-FRET assay (disruption of co-activator peptide binding to ERR1 LBD)). Conditions: 6 nM 6His-ERR1LBD, 6 nM GST-SRC-2 peptide; average of 3 independent experiments.
T1 sequence (P11474 193-421 limits assumed): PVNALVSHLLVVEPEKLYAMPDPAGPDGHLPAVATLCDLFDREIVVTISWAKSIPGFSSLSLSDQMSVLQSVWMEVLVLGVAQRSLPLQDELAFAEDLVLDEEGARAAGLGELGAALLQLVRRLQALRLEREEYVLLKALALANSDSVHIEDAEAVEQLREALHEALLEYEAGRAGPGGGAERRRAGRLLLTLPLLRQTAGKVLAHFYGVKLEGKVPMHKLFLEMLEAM
Format: biochemical
In short: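 His-tagged ERR1 ligand-binding domain and GST-labelled SRC-2 peptide, each 6 nM, equilibrated at 25° C for 4-18 h in Tris pH 8/Hepes/KCl/DTT/delipidated BSA buffer. Compound-induced loss of co-activator binding read as Eu cryptate→XL665 energy transfer; values from hyperbolic curve fits averaged over 3 independent runs.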

| EC50 [nM] | SMILES |
| --- | --- |
| ≥ 10000 | O=C1S/C(=C\c2ccc3c(cnn3Cc3ccc(Cl)cc3C(F)(F)F)c2)C(=O)N1Cc1cncs1 [Compound 94, (5Z)-5-({1-[4-Chloro-2-(trifluoromethyl)benzyl]-1H-indazol-5-yl}methylidene)-3-(1,3-thiazol-5-ylmethyl)-1,3-thiazolidine-2,4-dione] |
| 57 | O=C1S/C(=C\c2ccc3c(cnn3Cc3ccc(Cl)cc3C(F)(F)F)c2)C(=O)N1C[C@@H]1CCCNC1 [Compound 95, (5Z)-5-({1-[4-Chloro-2-(trifluoromethyl)benzyl]-1H-indazol-5-yl}methylidene)-3-[(3R)-piperidin-3-ylmethyl]-1,3-thiazolidine-2,4-dione] |
| 67 | O=C1S/C(=C\c2ccc3c(cnn3Cc3ccc(Cl)cc3C(F)(F)F)c2)C(=O)N1C[C@H]1CCCNC1 [Compound 96, (5Z)-5-({1-[4-Chloro-2-(trifluoromethyl)benzyl]-1H-indazol-5-yl}methylidene)-3-[(3S)-piperidin-3-ylmethyl]-1,3-thiazolidine-2,4-dione] |
| 47 | O=C(O)CCCN1C(=O)S/C(=C\c2ccc3c(cnn3Cc3ccc(Cl)cc3C(F)(F)F)c2)C1=O [Compound 97, 4-[(5Z)-5-({1-[4-Chloro-2-(trifluoromethyl)benzyl]-1H-indazol-5-yl}methylidene)-2,4-dioxo-1,3-thiazolidin-3-yl]butanoic acid] |
| 980 | O=C1S/C(=C\c2ccc3c(cnn3Cc3ccc(Cl)cc3C(F)(F)F)c2)C(=O)N1C[C@@H]1CSCCN1 [Compound 98, (5Z)-5-({1-[4-Chloro-2-(trifluoromethyl)benzyl]-1H-indazol-5-yl}methylidene)-3-[(3R)-thiomorpholin-3-ylmethyl]-1,3-thiazolidine-2,4-dione] |
| 46 | N[C@H]1C[C@H](CN2C(=O)S/C(=C\c3ccc4c(cnn4Cc4ccc(Cl)cc4C(F)(F)F)c3)C2=O)C1 [Compound 100, (5Z)-3-[(trans-3-Aminocyclobutyl)methyl]-5-({1-[4-chloro-2-(trifluoromethyl)benzyl]-1H-indazol-5-yl}methylidene)-1,3-thiazolidine-2,4-dione] |
| 68 | O=C1S/C(=C\c2ccc3c(cnn3Cc3ccc(Cl)cc3C(F)(F)F)c2)C(=O)N1CC1CNC1 [Compound 101, (5Z)-3-(Azetidin-3-ylmethyl)-5-({1-[4-chloro-2-(trifluoromethyl)benzyl]-1H-indazol-5-yl}methylidene)-1,3-thiazolidine-2,4-dione] |
| 37 | O=C1S/C(=C\c2ccc3c(cnn3Cc3ccc(Cl)cc3C(F)(F)F)c2)C(=O)N1C1CNC1 [Compound 102, (5Z)-3-Azetidin-3-yl-5-({1-[4-chloro-2-(trifluoromethyl)benzyl]-1H-indazol-5-yl}methylidene)-1,3-thiazolidine-2,4-dione] |
| 43 | N=C(N)NOCCN1C(=O)S/C(=C\c2ccc3c(cnn3Cc3ccc(C(F)(F)F)cc3C(F)(F)F)c2)C1=O [Compound 103, 1-{2-[(5Z)-5-({1-[2,4-Bis(trifluoromethyl)benzyl]-1H-indazol-5-yl}methylidene)-2,4-dioxo-1,3-thiazolidin-3-yl]ethoxy}guanidine] |
| 112 | O=C1S/C(=C\c2ccc3c(cnn3Cc3ccc(Cl)cc3C(F)(F)F)c2)C(=O)N1CCN1CCCNCC1 [Compound 104, (5Z)-5-({1-[4-Chloro-2-(trifluoromethyl)benzyl]-1H-indazol-5-yl}methylidene)-3-[2-(1,4-diazepan-1-yl)ethyl]-1,3-thiazolidine-2,4-dione] |
| 68 | N[C@H]1CCC[C@H](CN2C(=O)S/C(=C\c3ccc4c(cnn4Cc4ccc(Cl)cc4C(F)(F)F)c3)C2=O)C1 [Compound 105, (5Z)-3-{[(1S,3S)-3-Aminocyclohexyl]methyl}-5-({1-[4-chloro-2-(trifluoromethyl)benzyl]-1H-indazol-5-yl}methylidene)-1,3-thiazolidine-2,4-dione] |
| 350 | NC[C@H]1CC[C@H](CN2C(=O)S/C(=C\c3ccc4c(cnn4Cc4ccc(Cl)cc4C(F)(F)F)c3)C2=O)CC1 [Compound 106, (5Z)-3-{[trans-4-(Aminomethyl)cyclohexyl]methyl}-5-({1-[4-chloro-2-(trifluoromethyl)benzyl]-1H-indazol-5-yl}methylidene)-1,3-thiazolidine-2,4-dione] |
| 264 | N[C@@H](CN1C(=O)S/C(=C\c2ccc3c(cnn3Cc3ccc(Cl)cc3C(F)(F)F)c2)C1=O)C1CCCCC1 [Compound 107, (5Z)-3-[(2R)-2-Amino-2-cyclohexylethyl]-5-({1-[4-chloro-2-(trifluoromethyl)benzyl]-1H-indazol-5-yl}methylidene)-1,3-thiazolidine-2,4-dione] |
| 102 | O=C1S/C(=C\c2ccc3c(cnn3Cc3ccc(Cl)cc3C(F)(F)F)c2)C(=O)N1CCc1ccncc1 [Compound 108, (5Z)-5-({1-[4-Chloro-2-(trifluoromethyl)benzyl]-1H-indazol-5-yl}methylidene)-3-(2-pyridin-4-ylethyl)-1,3-thiazolidine-2,4-dione] |
| 152 | O=C1S/C(=C\c2ccc3c(cnn3Cc3ccc(Cl)cc3C(F)(F)F)c2)C(=O)N1CCc1cccnc1 [Compound 109, (5Z)-5-({1-[4-Chloro-2-(trifluoromethyl)benzyl]-1H-indazol-5-yl}methylidene)-3-(2-pyridin-3-ylethyl)-1,3-thiazolidine-2,4-dione] |
| 438 | O=C1S/C(=C\c2ccc3c(cnn3Cc3ccc(Cl)cc3C(F)(F)F)c2)C(=O)N1CCNc1ccc([N+](=O)[O-])cn1 [Compound 110, (5Z)-5-({1-[4-Chloro-2-(trifluoromethyl)benzyl]-1H-indazol-5-yl}methylidene)-3-{2-[(5-nitropyridin-2-yl)amino]ethyl}-1,3-thiazolidine-2,4-dione] |
| 16 | O=C1S/C(=C\c2ccc3c(cnn3Cc3ccc(Cl)cc3C(F)(F)F)c2)C(=O)N1C1CCNCC1 [Compound 113, (5Z)-5-({1-[4-Chloro-2-(trifluoromethyl)benzyl]-1H-indazol-5-yl}methylidene)-3-piperidin-4-yl-1,3-thiazolidine-2,4-dione] |
| 55 | O=C1S/C(=C\c2ccc3c(cnn3Cc3ccc(Cl)cc3C(F)(F)F)c2)C(=O)N1[C@H]1CCNC1 [Compound 114, (5Z)-5-({1-[4-Chloro-2-(trifluoromethyl)benzyl]-1H-indazol-5-yl}methylidene)-3-[(3S)-pyrrolidin-3-yl]-1,3-thiazolidine-2,4-dione] |
| 130 | O=C1S/C(=C\c2ccc3c(cnn3Cc3ccc(Cl)cc3C(F)(F)F)c2)C(=O)N1CCN1CC(O)C1 [Compound 115, (5Z)-5-({1-[4-Chloro-2-(trifluoromethyl)benzyl]-1H-indazol-5-yl}methylidene)-3-[2-(3-hydroxyazetidin-1-yl)ethyl]-1,3-thiazolidine-2,4-dione] |
| 180 | O=C1S/C(=C\c2ccc3c(cnn3Cc3ccc(Cl)cc3C(F)(F)F)c2)C(=O)N1CCN1CCC(F)(F)C1 [Compound 116, (5Z)-5-({1-[4-Chloro-2-(trifluoromethyl)benzyl]-1H-indazol-5-yl}methylidene)-3-[2-(3,3-difluoropyrrolidin-1-yl)ethyl]-1,3-thiazolidine-2,4-dione] |
| 86 | CC(=O)N1CCN(CCN2C(=O)S/C(=C\c3ccc4c(cnn4Cc4ccc(Cl)cc4C(F)(F)F)c3)C2=O)CC1 [Compound 117, (5Z)-3-[2-(4-Acetylpiperazin-1-yl)ethyl]-5-({1-[4-chloro-2-(trifluoromethyl)benzyl]-1H-indazol-5-yl}methylidene)-1,3-thiazolidine-2,4-dione] |
| 25 | CCN1CCC(N2C(=O)S/C(=C\c3ccc4c(cnn4Cc4ccc(Cl)cc4C(F)(F)F)c3)C2=O)CC1 [Compound 118, (5Z)-5-({1-[4-Chloro-2-(trifluoromethyl)benzyl]-1H-indazol-5-yl}methylidene)-3-(1-ethylpiperidin-4-yl)-1,3-thiazolidine-2,4-dione] |
| 40 | CCN1CC[C@H](N2C(=O)S/C(=C\c3ccc4c(cnn4Cc4ccc(Cl)cc4C(F)(F)F)c3)C2=O)C1 [Compound 119, (5Z)-5-({1-[4-Chloro-2-(trifluoromethyl)benzyl]-1H-indazol-5-yl}methylidene)-3-[(3S)-1-ethylpyrrolidin-3-yl]-1,3-thiazolidine-2,4-dione] |
| 220 | O=C1S/C(=C\c2ccc3c(cnn3Cc3ccc(Cl)cc3C(F)(F)F)c2)C(=O)N1CCN1CCC1 [Compound 120, (5Z)-3-(2-Azetidin-1-ylethyl)-5-({1-[4-chloro-2-(trifluoromethyl)benzyl]-1H-indazol-5-yl}methylidene)-1,3-thiazolidine-2,4-dione] |
| 314 | O=C(O)CN1C(=O)S/C(=C\c2ccc3c(cnn3Cc3ccc(F)cc3C(F)(F)F)c2)C1=O [Compound 122, [(5Z)-5-({1-[4-Fluoro-2-(trifluoromethyl)benzyl]-1H-indazol-5-yl}methylidene)-2,4-dioxo-1,3-thiazolidin-3-yl]acetic acid] |
| 45 | COCCN1C(=O)S/C(=C\c2ccc3c(cnn3Cc3ccc(Cl)cc3C(F)(F)F)c2)C1=O [Compound 123, (5Z)-5-({1-[4-Chloro-2-(trifluoromethyl)benzyl]-1H-indazol-5-yl}methylidene)-3-(2-methoxyethyl)-1,3-thiazolidine-2,4-dione] |

| SMILES | EC50 [nM] |
| --- | --- |
| O=C1S/C(=C\c2ccc3c(cnn3Cc3ccc(Cl)cc3C(F)(F)F)c2)C(=O)N1C1CN2CCC1CC2 (stereo not drawn) [Compound 112, (5Z)-3-(1-Azabicyclo[2.2.2]oct-3-yl)-5-({1-[4-chloro-2-(trifluoromethyl)benzyl]-1H-indazol-5-yl}methylidene)-1,3-thiazolidine-2,4-dione] | 22 |
